Experimental data reported in patent US8658668B2, “PI3 kinase/mTOR dual inhibitor” (Eli Lilly and Company, priority 2011, dated 2014).
In brackets after ≈: the same amount, converted by molar mass.

Experiment: Solubility determination
Assay type: physicochemical
Protocol: Prepare a 2 mg/mL solution of Example 2 in each of the required media by weighing approximately 1 mg of compound into a vial and add the required volume (i.e. 0.5 mL) of the corresponding media into each vial. Place capped vial on a rotating mixture over night (˜16 hours) at ambient conditions, then filter using 0.22 um Ultrafree-MC filters (Millipore™) and measure pH of filtrate (Orion 720A pH meter). Prepare the sample for HPLC analysis by transferring 100 μL of the filtrate into a HPLC vial and add 900 μL of 50% acetonitrile/water solution.

Solubility, Average mg/mL (50 mM phosphate buffer at pH 2, average filtrate pH 2.31): ≧2.0 mg/mL
Solubility, Average mg/mL (50 mM phosphate buffer at pH 4, average filtrate pH 4.92): 1.0524 mg/mL (≈ 2590 µM)
Solubility, Average mg/mL (50 mM phosphate buffer at pH 6, average filtrate pH 6.14): 0.7178 mg/mL (≈ 1770 µM)
Solubility, Average mg/mL (50 mM phosphate buffer at pH 8, average filtrate pH 8.00): 0.6352 mg/mL (≈ 1560 µM)
Solubility, Average mg/mL (0.1N HCl, average filtrate pH 1.15, ~16 hours, ambient): ≧2.0 mg/mL
Solubility, Average mg/mL (Fast, simulated intestinal fluid fasted state, average filtrate pH 6.45): 1.0203 mg/mL (≈ 2510 µM)
Solubility, Average mg/mL (Fed, simulated intestinal fluid fed state, average filtrate pH 5.09): ≧2.0 mg/mL
Solubility, Average mg/mL (SGF, simulated gastric fluid, average filtrate pH 3.52): 1.7529 mg/mL (≈ 4310 µM)
SMILES: CO[C@@H](C)Cn1c(=O)n(C)c2cnc3ccc(-c4cncc(C(C)(C)O)c4)cc3c21 [Example 2, 8-[5-(1-Hydroxy-1-methylethyl)pyridin-3-yl]-1-[(2S)-2-methoxypropyl]-3-methyl-1,3-dihydro-2H-imidazo[4,5-c]quinolin-2-one, Form I]
